Measured values reported in patent publication US20240331158A1, “CELL PAINTING AND ANALYSIS IN 3D CELLULAR MODELS” (priority 2023, published 2024).
Counter-ions that a name gives are not always drawn. Like-named read-outs stand apart in the source and are kept apart here. *1 amine or outer side, *2 acyl side, *3 side chain or, on linkers, in order; H or OH if unused. Where a SMILES comes first, the peptide text is derived from it. Bridges are numbered along the chain shown (N, C = ends). Roman numbers before positions name the chains, in order. [ ]: non-standard residue; d: D form. Actinocin(9to1) = Cc1c2oc3c(C)ccc(C(=O)[*:1])c3nc-2c(C(=O)[*:2])c(N)c1=O; NMeV = CN[C@H](C(=O)O)C(C)C; Sar = CNCC(=O)O

Key:
[1] = test system: TU-BcX-4IC tumoroids; test: Cell Painting assay adapted for 3D tumoroids, phenotypic distance score and cluster analysis; conditions: 10 μM, phenotypic distance relative to DMSO controls
Description: For phenotypic profiling, the tumoroids were treated with a single 10 μM concentration of compound, using the methods described above. Notable changes in the staining protocol included increased times for dye incubation, fixation, and permeabilization. […] Images were acquired with Z-stacks using 20× magnification, and the analysis was carried out on projection (maximum) images.
Unlike the previous analysis that included cell count or live-dead evaluation, multiple read-outs may be collected from the whole spheroid to form their phenotypic profile. […] Instead, the spheroid images may also acquired in transmitted light (bright field), and these images may be used to identify the spheroid structures using a deep learning-based image segmentation approach which may improve the analysis. Features extracted from each spheroid may include object morphologies, intensities, and texture measurements for, e.g., the six cell stains and bright field images.
To determine hits from the assay, a phenotypic distance score may be calculated based on the PCA (principal component analysis) components.
This score is a measure of the phenotypic effect of the compounds on the tumoroids relative to the controls. All hits may then be clustered based on their phenotypic profiles using the normalized principal component scores.
To image the organoids labeled with the cell painting dyes, the ImageXpress Confocal HT.ai system, equipped with a laser light source, was used for image acquisition. The confocal mode (pinhole size 60 μm) was used to image organoids with a 20× Plan Apo Lambda, NA 0.75 objective, with z-stacking enabled (5p m step size). The maximum projection image was selected in the acquisition setup.
Images were analyzed using MetaXpress Software (Molecular Devices). […] For the Cell Painting analysis, image analysis was done in the IN Carta image analysis software. To segment the organoids, a deep learning-based model was created based on the TL channel to segment individual organoids. Following segmentation, measurements that include intensity, shape, area, and texture were extracted from all 6 fluorescent channels. In total, 210 analytical features were obtained from each organoid.
The plate was first incubated with MitoTracker DeepRed (500 nM) for 2 hours. The samples were fixed with 4% paraformaldehyde (PFA) in HBSS for 60 minutes. All wash steps were carried out by exchanging half the volume in each well with HBSS to minimize displacement of the organoids from the center of the well.
Measurements from IN Carta were exported as a CSV file and uploaded into StratoMineR (Core Life Analytica), a web-based data analytics platform for hit picking and phenotypic clustering.

[2] = test system: TU-BcX-4IC tumoroids; test: Library screening of NCI approved anti-cancer drugs: tumoroid integrity/disintegration by nuclear count in projection images (viability/spheroid disintegration assay); conditions: for Viability HIT?: also hit in viability/spheroid disintegration assay, 10 μM; for minimal effective concentration: Homo sapiens, TU-BcX-4IC, 120 h
Description: In addition, positive and negative controls were included in the test plates.
During incubation with compounds, tumoroids were monitored daily using TL imaging. Image analysis allowed characterization of tumoroid size, diameter, compactness, and integrity, as well as optical density (FIG. 2B, FIG. 7). Images of tumoroids were taken prior to compound treatment, and during day 3 and day 5 of compound treatment. For the end point assay, tumoroids were stained with viability and nuclear dyes on day 5 of compound treatment. Cells were stained with a combination of Hoechst, calcein AM, and Ethidium Homodimer III (EthD-III) and analyzed using high content imaging for complex phenotypic analysis; a subset of plates was set aside for additional assays including Cell Painting.
Images of organoids were taken with a 10× objective using Z-stack with a step size of 8 mm. Nuclei, live cells, and dead cells of stained cells were detected using DAPI, FITC, and TexasRed channels respectively. Maximum projection images were created from Z-stacks and analyzed as described in Methods. Multiple read-outs were generated characterizing spheroid area, diameter, intensities, and cell viability. In addition, cells inside each spheroid were counted using a nuclear stain. […] Suspended cells were plated into U-shape 384 well plates using a Biomek i7 automated liquid handler, incubated for 48 hours, and then treated with compounds, stained, and imaged. The protocols for compound additions, media, and staining included gentle media dispensing processes. Consecutively, tumoroids were cultured and monitored by automated imaging. Additionally, use of a collaborative robot enabled moving plates from the incubator to the imaging system, where transmitted light imaging or fluorescent imaging protocols were initiated.
For screening the compound library, maximum projection images may be employed. Spheroid disintegration is visible as an increase of spheroid size, in contrast to nicely shaped, round images of intact spheroids. Tumoroid disintegration can be described by several measurements: for example, increase in organoid area/diameter. Most accurate measurements may be done by counting cells or nuclei inside organoids using maximum projection images. […] Disintegrated tumoroids are made up of cells which are not held together in a tight aggregate but instead are loosely piled up in the well bottom resulting in 1) an increased projected area and 2) an increase in nuclear count in the projection images.
Simple nuclei count analysis in projection images was used as a reliable surrogate marker for organoid integrity/dis-integration.

[3] = test system: TU-BcX-4IC 3D cultures; test: CellTiter-Glo 3D ATP assay, 3D culture; conditions: Homo sapiens, TU-BcX-4IC, 120 h, read-out: EC50, ATP 3D
Description: (§1) Cell metabolism may be measured by ATP level as another readout for effects of anti-cancer drugs that is related to cytotoxicity. […] Compounds may be tested using 7 point 5× dilutions starting from 100 uM. In the present examples, compound effects on 2D culture and 3D cultures were compared, using imaging and CellTiter-Glo 3D methods. Cultures were set up in parallel, using same cell number (2000). Cultures were allowed to grow for 48 hours, then treated with compounds for 5 days.

[4] = test system: TU-BcX-4IC 2D culture; test: CellTiter-Glo 3D ATP assay, 2D culture; conditions: Homo sapiens, TU-BcX-4IC, 120 h, read-out: EC50, ATP 2D
Description: as §1

[5] = test system: TU-BcX-4IC 2D culture; test: Imaging read-out, 2D culture; conditions: Homo sapiens, 120 h, read-out: EC50, Imaging 2D
Description: (§2) Cell metabolism may be measured by ATP level as another readout for effects of anti-cancer drugs that is related to cytotoxicity. In the present examples, a subset of 12 compounds were used for evaluation of compound effects, using the CellTiter-Glo 3D assay (Promega), which detects ATP levels. Compounds may be tested using 7 point 5× dilutions starting from 100 uM. In the present examples, compound effects on 2D culture and 3D cultures were compared, using imaging and CellTiter-Glo 3D methods. Cultures were set up in parallel, using same cell number (2000). Cultures were allowed to grow for 48 hours, then treated with compounds for 5 days.
(§3) Images were analyzed using MetaXpress Software (Molecular Devices). Count Nuclei or Cell Scoring application modules were used for nuclear count live/dead assessment, or evaluation of cell number positive for specific markers. Output measurements included spheroid width, spheroid area, average intensity for calcein AM or EthD-III, counts of all nuclei, and evaluation of average nuclear size and average intensities. In addition, calcein AM-positive cells were counted, and their area and intensity values were recorded. In addition to cell count, areas and intensities could be determined for live (EthD-III negative) and dead (EthD-III positive) cells.

[6] = test system: TU-BcX-4IC 3D cultures; test: Imaging read-out, 3D culture; conditions: Homo sapiens, 120 h, read-out: EC50, Imaging 3D
Description: as §2, §3

[7] = test system: TU-BcX-4IC tumoroids; test: Secondary follow-up 3D assay, 7-point concentration curves, tumoroid disintegration measurement; assay type: cell-based, human; conditions: 3D assay, 7-point concentration curves, 5 days, nuclear count in projection images
Description: 10 compounds, including panobinostat, carfilzomib, and bortezomib were tested across 7 concentrations in the 1-10000 nM range. Spheroids were treated for 5 days with these compounds, then stained as described above (FIG. 4). […] EC50 values (Table 2) were determined using tumoroid disintegration measurement (nuclear count in projection images).
Automated staining of spheroids was performed for one hour. After staining, dye solution was replaced with 1×PBS.

[8] = read-out: Effective concentration, 3D tumoroids, 5 days treatment, tumoroid integrity by nuclear count, tested at 10 nM to 100 uM
[9] = Homo sapiens, TU-BcX-4IC, 120 h, read-out: EC50
[10] = read-out: Effective concentration

COC(=O)N[C@@H](C)CNc1nccc(-c2cn(C(C)C)nc2-c2cc(Cl)cc(NS(C)(=O)=O)c2F)n1 [Encorafenib]
Distance Score [1]: 5.516 | Viability HIT? [2]: no

O=C(Nc1cnn2ccc(N3CCC[C@@H]3c3cc(F)ccc3F)nc12)N1CC[C@H](O)C1 [Larotrectinib]
Distance Score [1]: 5.667 | Viability HIT? [2]: no

C=CC(=O)N1CCC[C@@H](n2nc(-c3ccc(Oc4ccccc4)cc3)c3c(N)ncnc32)C1 [Ibrutinib]
EC50 [3]: 15.8 µM | EC50 [4]: 25 µM | EC50 [5]: 20.2 µM | EC50 [6]: ~20 µM

CCCCC(=O)OCC(=O)[C@]1(O)Cc2c(O)c3c(c(O)c2[C@@H](O[C@H]2C[C@H](NC(=O)C(F)(F)F)[C@H](O)[C@H](C)O2)C1)C(=O)c1c(OC)cccc1C3=O [Valrubicin]
Distance Score [1]: 8.136 | Viability HIT? [2]: yes

CC(C)C[C@H](NC(=O)CNC(=O)c1cc(Cl)ccc1Cl)B1OC(=O)C(CC(=O)O)(CC(=O)O)O1 [Ixazomib citrate]
minimal effective concentration [2, 8]: 0.1 µM

COc1cccc2c1C(=O)c1c(O)c3c(c(O)c1C2=O)C[C@@](O)(C(=O)CO)C[C@@H]3O[C@H]1C[C@H](N)[C@@H](O)[C@H](C)O1 [Epirubicin hydrochloride]
Distance Score [1]: 5.883 | minimal effective concentration [2, 8]: 1 µM

O=C(/C=C\n1cnc(-c2cc(C(F)(F)F)cc(C(F)(F)F)c2)n1)NNc1cnccn1 [Selinexor]
Distance Score [1]: 5.004 | Viability HIT? [2]: no

Cc1c2oc3c(C)ccc(C(=O)N[C@@H]4C(=O)N[C@H](C(C)C)C(=O)N5CCC[C@H]5C(=O)N(C)CC(=O)N(C)[C@@H](C(C)C)C(=O)O[C@@H]4C)c3nc-2c(C(=O)N[C@@H]2C(=O)N[C@H](C(C)C)C(=O)N3CCC[C@H]3C(=O)N(C)CC(=O)N(C)[C@@H](C(C)C)C(=O)O[C@@H]2C)c(N)c1=O [Dactinomycin] (I: T[dV]P[Sar][NMeV] / II: T[dV]P[Sar][NMeV]; ester I:1-I:C, II:1-II:C; linker I:N-II:N via Actinocin(9to1))
EC50 [3]: 0.005 µM | EC50 [4]: < 0.01 µM | Efficacy at low concentrations ([2]; library screen, tumoroid integrity by nuclear count): efficacy at low concentrations | EC50 [5]: < 0.01 µM | EC50 [6]: 0.033 µM

Clc1ccc(C(c2ccccc2Cl)C(Cl)Cl)cc1 (stereo not shown) [Mitotane]
minimal effective concentration [2, 8]: 0.1 µM

CCN(CC)CCNC(=O)c1c(C)[nH]c(/C=C2\C(=O)Nc3ccc(F)cc32)c1C [Sunitinib]
EC50 [7, 9]: 1.7 µM

Cc1cnc(Nc2ccc(OCCN3CCCC3)cc2)nc1Nc1cccc(S(=O)(=O)NC(C)(C)C)c1 [Fedratinib]
minimal effective concentration [2, 8]: 1 µM

C=CC(=O)Nc1cc(Nc2nccc(-c3cn(C)c4ccccc34)n2)c(OC)cc1N(C)CCN(C)C [Osimertinib]
Distance Score [1]: 5.241 | Viability HIT? [2]: yes

Cc1nc(Nc2ncc(C(=O)Nc3c(C)cccc3Cl)s2)cc(N2CCN(CCO)CC2)n1 [Dasatinib]
minimal effective concentration [2, 8]: 0.1 µM

C[C@@H](Oc1cc(-c2cnn(C3CCNCC3)c2)cnc1N)c1c(Cl)ccc(F)c1Cl [Crizotinib]
EC50 [7, 9]: > 1 µM

O=C(/C=C/c1cccc(S(=O)(=O)Nc2ccccc2)c1)NO [Belinostat]
Distance Score [1]: 5.348 | minimal effective concentration [2, 8]: 0.1 µM | Viability HIT? [2]: yes

Oc1ncc(N(CCCl)CCCl)c(O)n1 [Uracil mustard]
minimal effective concentration [2, 10]: 1 µM

CC[C@]1(O)C[C@H]2CN(CCc3c([nH]c4ccccc34)[C@@](C(=O)OC)(c3cc4c(cc3OC)N(C=O)[C@H]3[C@@](O)(C(=O)OC)[C@H](OC(C)=O)[C@]5(CC)C=CCN6CC[C@]43[C@@H]65)C2)C1 [Vincristine sulfate]
minimal effective concentration [2, 8]: 0.1 µM

C[C@]12CC[C@@H]3c4ccc(O)cc4C[C@@H](CCCCCCCCC[S+]([O-])CCCC(F)(F)C(F)(F)F)[C@H]3[C@@H]1CC[C@@H]2O (stereo partly shown) [Fulvestrant]
minimal effective concentration [2, 8]: 0.01 µM

COc1cc(Nc2c(C#N)cnc3cc(OCCCN4CCN(C)CC4)c(OC)cc23)c(Cl)cc1Cl [Bosutinib]
minimal effective concentration [2, 8]: 0.1 µM

Cc1ccc(C(=O)Nc2ccc(CN3CCN(C)CC3)c(C(F)(F)F)c2)cc1C#Cc1cnc2cccnn12 [Ponatinib]
minimal effective concentration [2, 10]: 0.1 µM

CCN1CCN(Cc2ccc(Nc3ncc(F)c(-c4cc(F)c5nc(C)n(C(C)C)c5c4)n3)nc2)CC1 [Abemaciclib]
Distance Score [1]: 5.819

CC[C@]1(O)C[C@@H]2CN(CCc3c([nH]c4ccccc34)[C@@](C(=O)OC)(c3cc4c(cc3OC)N(C)[C@H]3[C@@](O)(C(=O)OC)[C@H](OC(C)=O)[C@]5(CC)C=CCN6CC[C@]43[C@@H]65)C2)C1 [Vinblastine sulfate]
minimal effective concentration [2, 8]: 0.1 µM

Cc1ccc(-c2cc(C(F)(F)F)nn2-c2ccc(S(N)(=O)=O)cc2)cc1 [Celecoxib]
EC50 [7]: no effect

CNC(=O)c1cc(Oc2ccc(NC(=O)Nc3ccc(Cl)c(C(F)(F)F)c3)c(F)c2)ccn1 [Regorafenib]
minimal effective concentration [2, 8]: 0.1 µM

CN(C)C/C=C/C(=O)Nc1cc2c(Nc3ccc(F)c(Cl)c3)ncnc2cc1O[C@H]1CCOC1 [Afatinib]
Distance Score [1]: 5.047

COc1cc(N2CCC(N3CCN(C)CC3)CC2)ccc1Nc1ncc(Cl)c(Nc2ccccc2P(C)(C)=O)n1 [Brigatinib]
Distance Score [1]: 5.771 | minimal effective concentration [2, 8]: 1 µM

CC(=O)O[C@H]1C(=O)[C@@]2(C)[C@H]([C@H](OC(=O)c3ccccc3)[C@]3(O)C[C@H](OC(=O)[C@H](O)[C@@H](NC(=O)c4ccccc4)c4ccccc4)C(C)=C1C3(C)C)[C@]1(OC(C)=O)CO[C@@H]1C[C@@H]2O [Paclitaxel]
minimal effective concentration [2, 8]: 1 µM | EC50 [7, 9]: 2.9 µM

CO[C@@]12[C@H](COC(N)=O)C3=C(C(=O)C(C)=C(N)C3=O)N1C[C@@H]1N[C@@H]12 [Mitomycin]
minimal effective concentration [2, 8]: 1 µM

Cc1nc(NC(=O)N2CCC[C@H]2C(N)=O)sc1-c1ccnc(C(C)(C)C(F)(F)F)c1 [Alpelisib]
Distance Score [1]: 5.834 | Viability HIT? [2]: yes

COc1cc2c(Nc3ccc(Br)cc3F)ncnc2cc1OCC1CCN(C)CC1 [Vandetanib]
Distance Score [1]: 5.185 | minimal effective concentration [2, 8]: 1 µM

CC1(C)CCC(CN2CCN(c3ccc(C(=O)NS(=O)(=O)c4ccc(NCC5CCOCC5)c([N+](=O)[O-])c4)c(Oc4cnc5[nH]ccc5c4)c3)CC2)=C(c2ccc(Cl)cc2)C1 [Venetoclax]
Distance Score [1]: 4.922 | minimal effective concentration [2, 8]: 1 µM

Dabrafenib mesylate
Distance Score [1]: 6.249 | Viability HIT? [2]: yes

COC(=O)C[C@](O)(CCCC(C)(C)O)C(=O)O[C@@H]1C(OC)=C[C@]23CCCN2CCc2cc4c(cc2[C@H]13)OCO4 [Omacetaxine]
Effective concentration ([2]; 3D tumoroids, 5 days treatment, tumoroid integrity by nuclear count, tested at 10 nM to 100 uM): 1 µM | EC50 ([7]; read-out: EC50): < 0.1 µM

Cn1cc(-c2cc3c(N4CCN(c5ncc([C@@](C)(N)c6ccc(F)cc6)cn5)CC4)ncnn3c2)cn1 [Avapritinib]
Distance Score [1]: 5.386 | Viability HIT? [2]: no

CN1CCN(c2ccc(C(=O)Nc3n[nH]c4ccc(Cc5cc(F)cc(F)c5)cc34)c(NC3CCOCC3)c2)CC1 [Entrectinib]
Distance Score [1]: 4.843 | Viability HIT? [2]: yes

CCc1nc(C(N)=O)c(Nc2ccc(N3CCC(N4CCN(C)CC4)CC3)c(OC)c2)nc1NC1CCOCC1 [Gilteritinib]
Distance Score [1]: 5.239 | minimal effective concentration [2, 8]: 1 µM

O=C(CCCCCCC(=O)Nc1ccccc1)NO [Vorinostat]
Distance Score [1]: 5.079 | minimal effective concentration [2, 8]: 1 µM | Viability HIT? [2]: no
